Like-named read-outs stand apart in the source and are kept apart here.

Here are results for 2 molecules from patent US9067944B2, “Process for the preparation of anagrelide and analogues thereof” (SHIRE LLC, priority 2010, dated 2015).

A short description of data set [1]: solubility of the tosylate salt. In kind it is physicochemical. The note with it: crystalline tosylate salt.
For data set [2] the following is noted: radiolabeled base, humans; cited from earlier work.
For data set [3] the following is noted: radiolabeled base, monkeys; cited from earlier work.
For data set [4] the following is noted: solid form; cited from earlier work.

As for `CC1(C)C(=O)NC2=Nc3ccc(Cl)c(Cl)c3CN21.Cc1ccc(S(=O)(=O)O)cc1` [3,3-dimethylanagrelide tosylate, 3,3-Dimethylanagrelide Tosylate], the solubility entry in data set [1] is given as “soluble”.

With `O=C1CN2Cc3c(ccc(Cl)c3Cl)N=C2N1` [compound III, 6,7-dichloro-1,5-dihydroimidazo[2,1-b]quinazolin 2 (3H)-one], the “absorption into blood plasma” value in data set [2] and in data set [3] was “complete absorption” in each case. Further, the aqueous solubility entry in data set [4] is reported as “low”.
